Each structure is given as a SMILES string. Read-outs that look alike come from different tables or passages of the source. Marks after values point to notes of the source that are not given here. Starred links: 1 amine or outer side, 2 acyl side, 3 side chain; linkers in the order of their positions; H or OH if unused. Non-standard residues stand in square brackets, D forms with d. Residues, ends and D or L forms follow the SMILES beside them. Groups on a side chain read outwards from the residue. *: point of attachment. C18 diacid = O=C(O)CCCCCCCCCCCCCCCCC(=O)*; γGlu = O=C(O)[C@H](CCC(=O)[*:2])N[*:1]; εLys = N[C@@H](CCCCN[*:1])C(=O)[*:2]; Aib = CC(C)(N)C(=O)O

For data set [1], the target named is human GLP-1 receptor (Homo sapiens, UniProt P43220). In words: In vitro functional potency, CRE luciferase reporter, whole BHK cells (hGLP-1R). It counts as cell-based. Details: expressed in transfected cells; host or cells: BHK (parent line BHKTS13), clone BHK CRE luc2P hGLP-1R. Particulars: BHK CRE luc2P hGLP-1R cells. Summed up: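 Potencies are replicate means (n≥2) from non-linear log(agonist) vs response fits of CRE-driven luminescence. Cells were overnight-plated BHK CRE luc2P lines transfected with human GIPR or GLP-1R, 5000/well.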
Chain of human GLP-1 receptor (P43220 24-463): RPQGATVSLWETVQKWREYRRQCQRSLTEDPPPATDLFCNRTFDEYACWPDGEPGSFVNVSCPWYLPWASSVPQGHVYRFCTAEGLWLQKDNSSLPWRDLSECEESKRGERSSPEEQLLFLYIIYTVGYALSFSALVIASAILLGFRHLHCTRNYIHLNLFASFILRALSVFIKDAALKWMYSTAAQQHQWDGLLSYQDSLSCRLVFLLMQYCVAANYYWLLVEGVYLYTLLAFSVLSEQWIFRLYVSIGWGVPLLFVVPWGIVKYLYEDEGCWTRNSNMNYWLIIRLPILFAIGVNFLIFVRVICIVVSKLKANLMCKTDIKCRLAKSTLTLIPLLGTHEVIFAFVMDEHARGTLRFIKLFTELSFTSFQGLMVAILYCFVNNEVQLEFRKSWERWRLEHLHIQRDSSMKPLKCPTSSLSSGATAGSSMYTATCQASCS
For orientation: In a reporter assay the amount or activity of a reporter protein is the signal.

A short description of data set [2]: Pharmacokinetic study in dogs after oral dosing of tablets with SNAC. Format: in vivo, Beagle dogs. Particulars: for half-life / Tmax: male. Summed up: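 The tablets held 3-4 mg compound plus 100-300 mg SNAC and were given to fasted male beagles (6-8 per group); non-compartmental PK per animal.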
Setting [3] is: hGLP-1R, CRE Luc 1% HSA EC50, 1% HSA.
Where [4] appears, read: oral tablet, SNAC 300 mg, test substance 3 mg, Beagle dogs, arithmetic mean.
Where [5] appears, read: 0% HSA, read-out: hGLP-1R, CRE Luc 0% HSA EC50.

As a reminder, the EC50 is the concentration needed to bring the measured effect to its halfway point. The term Tmax denotes the time at which the peak concentration occurs. With `CC[C@H](C)[C@H](NC(=O)[C@H](Cc1ccccc1)NC(=O)[C@H](CCC(=O)O)NC(=O)[C@H](CCCNC(=N)N)NC(=O)[C@H](C)NC(=O)[C@H](C)NC(=O)[C@H](CCC(N)=O)NC(=O)[C@H](CCCCNC(=O)[C@@H](N)CCCCNC(=O)[C@@H](N)CCCCNC(=O)CC[C@H](NC(=O)CCCCCCCCCCCCCCCCC(=O)O)C(=O)O)NC(=O)[C@H](CCC(=O)O)NC(=O)[C@H](CC(C)C)NC(=O)[C@H](CC(C)C)NC(=O)[C@@H](NC(=O)[C@H](CO)NC(=O)[C@H](Cc1ccc(O)cc1)NC(=O)[C@H](CC(=O)O)NC(=O)[C@H](CO)NC(=O)[C@@H](NC(=O)[C@H](Cc1ccccc1)NC(=O)[C@@H](NC(=O)CNC(=O)[C@H](CCC(=O)O)NC(=O)C(C)(C)NC(=O)[C@@H](N)Cc1ccc(O)cc1)[C@@H](C)O)[C@@H](C)O)[C@@H](C)CC)C(=O)N[C@@H](CCC(=O)O)C(=O)N[C@@H](Cc1c[nH]c2ccccc12)C(=O)N[C@@H](CC(C)C)C(=O)N[C@@H](CC(C)C)C(=O)N[C@@H](CCCNC(=N)N)C(=O)NCC(=O)NCC(=O)N1CCC[C@H]1C(=O)N[C@@H](CCC(=O)O)C(=O)N[C@@H](CO)C(=O)NCC(=O)N[C@@H](C)C(=O)N1CCC[C@H]1C(=O)N1CCC[C@H]1C(=O)N1CCC[C@H]1C(=O)N[C@@H](CO)C(=O)O` [Compound 28] (H-Y[Aib]EGTFTSDYSILLEK([εLys-εLys-γGlu-C18 diacid])QAAREFIEWLLRGGPESGAPPPS-OH), in data set [1] (hGLP-1R, CRE Luc 0% HSA EC50, 0% HSA), the EC50 was determined as 0.0062 nM. In data set [1] (setting [3]), the EC50 turned out to be 0.139 nM. Besides, the half-life in data set [2] (dog, in vivo, oral tablet, SNAC 300 mg, test substance 3 mg, Beagle dogs, harmonic mean, read-out: t1/2 (converted)) is 2.79 days. For the same molecule, the Tmax in data set [2] (dog, in vivo, oral tablet, SNAC 300 mg, test substance 3 mg, Beagle dogs, median, read-out: Tmax) is 1.3 h. In data set [2] (setting [4]), the AUC/Dose is on record as 18.6** kg * h/L and the Cmax/Dose was 0.36** kg/L.
In the case of `CC[C@H](C)[C@H](NC(=O)[C@H](Cc1ccccc1)NC(=O)[C@H](CCC(=O)O)NC(=O)[C@H](CCC(N)=O)NC(=O)[C@H](C)NC(=O)[C@H](C)NC(=O)[C@H](CCC(N)=O)NC(=O)[C@H](CCCCNC(=O)[C@@H](N)CCCCNC(=O)[C@@H](N)CCCCNC(=O)CC[C@H](NC(=O)CCCCCCCCCCCCCCCCC(=O)O)C(=O)O)NC(=O)[C@H](CCC(=O)O)NC(=O)[C@H](CC(C)C)NC(=O)[C@H](CC(C)C)NC(=O)[C@@H](NC(=O)[C@H](CO)NC(=O)[C@H](Cc1ccc(O)cc1)NC(=O)[C@H](CC(=O)O)NC(=O)[C@H](CO)NC(=O)[C@@H](NC(=O)[C@H](Cc1ccccc1)NC(=O)[C@@H](NC(=O)CNC(=O)[C@H](CCC(=O)O)NC(=O)C(C)(C)NC(=O)[C@@H](N)Cc1ccc(O)cc1)[C@@H](C)O)[C@@H](C)O)[C@@H](C)CC)C(=O)N[C@@H](CCC(=O)O)C(=O)N[C@@H](Cc1c[nH]c2ccccc12)C(=O)N[C@@H](CC(C)C)C(=O)N[C@@H](CC(C)C)C(=O)N[C@@H](C)C(=O)NCC(=O)NCC(=O)N1CCC[C@H]1C(=O)N[C@@H](CO)C(=O)N[C@@H](CO)C(=O)NCC(=O)N[C@@H](C)C(=O)N1CCC[C@H]1C(=O)N1CCC[C@H]1C(=O)N1CCC[C@H]1C(=O)N[C@@H](CO)C(=O)O` [Compound 29] (H-Y[Aib]EGTFTSDYSILLEK([εLys-εLys-γGlu-C18 diacid])QAAQEFIEWLLAGGPSSGAPPPS-OH), the EC50 in data set [1] (setting [5]) came out at 0.0168 nM. In data set [1] (setting [3]), the EC50 is 0.379 nM. In addition, in data set [2] (dog, in vivo, po), the AUC/Dose is 16.6** kg * h/L and the Cmax/Dose was 0.26** kg/L. In data set [2] (Beagle, dog, in vivo, po), the time to peak (Tmax) stood at 1.2 h and the half-life was 2.88 days.
For the molecule `CC[C@H](C)[C@H](NC(=O)[C@H](Cc1ccccc1)NC(=O)[C@H](CCC(=O)O)NC(=O)[C@H](CCCNC(=N)N)NC(=O)[C@H](C)NC(=O)[C@H](C)NC(=O)[C@H](CCC(N)=O)NC(=O)[C@H](CCCCNC(=O)[C@@H](N)CCCCNC(=O)[C@@H](N)CCCCNC(=O)CC[C@H](NC(=O)CCCCCCCCCCCCCCCCC(=O)O)C(=O)O)NC(=O)[C@H](CCC(=O)O)NC(=O)[C@H](CC(C)C)NC(=O)[C@H](CC(C)C)NC(=O)[C@@H](NC(=O)[C@H](CO)NC(=O)[C@H](Cc1ccc(O)cc1)NC(=O)[C@H](CC(=O)O)NC(=O)[C@H](CO)NC(=O)[C@@H](NC(=O)[C@H](Cc1ccccc1)NC(=O)[C@@H](NC(=O)CNC(=O)[C@H](CCC(=O)O)NC(=O)C(C)(C)NC(=O)[C@@H](N)Cc1ccc(O)cc1)[C@@H](C)O)[C@@H](C)O)[C@@H](C)CC)C(=O)N[C@@H](CCC(=O)O)C(=O)N[C@@H](Cc1c[nH]c2ccccc12)C(=O)N[C@@H](CC(C)C)C(=O)N[C@@H](CC(C)C)C(=O)N[C@@H](C)C(=O)NCC(=O)NCC(=O)N1CCC[C@H]1C(=O)N[C@@H](CO)C(=O)N[C@@H](CO)C(=O)NCC(=O)N[C@@H](C)C(=O)N1CCC[C@H]1C(=O)N1CCC[C@H]1C(=O)N1CCC[C@H]1C(=O)N[C@@H](CO)C(=O)O` [Compound 31] (H-Y[Aib]EGTFTSDYSILLEK([εLys-εLys-γGlu-C18 diacid])QAAREFIEWLLAGGPSSGAPPPS-OH), the EC50 in data set [1] (setting [5]) was 0.0042 nM. Moreover, the EC50 in data set [1] (setting [3]) was found to be 0.202 nM. In addition, in data set [2] (dog, in vivo, po), the AUC/Dose is listed as 17.9** kg * h/L and the Cmax/Dose is reported as 0.35** kg/L. In data set [2] (Beagle, dog, in vivo, po), the time of peak concentration (Tmax) stood at 1.3 h and the half-life is 2.33 days.
